Usually pEC50 stands for the negative decadic logarithm of the EC50, by convention in mol/L. Read a low pEC50 as a high EC50. One may read the pIC50 as the IC50 on a negative log10 scale, so that one unit is a factor of ten.

The values below come from ChEMBL document CHEMBL1221216, “Chemical probes for histone-modifying enzymes” (Nat Chem Biol, 2008).

Assay [1] has as its target T1, NAD-dependent protein deacetylase sirtuin-2 (Homo sapiens, UniProt Q8IXJ6).
T1 sequence (Q8IXJ6 whole entry): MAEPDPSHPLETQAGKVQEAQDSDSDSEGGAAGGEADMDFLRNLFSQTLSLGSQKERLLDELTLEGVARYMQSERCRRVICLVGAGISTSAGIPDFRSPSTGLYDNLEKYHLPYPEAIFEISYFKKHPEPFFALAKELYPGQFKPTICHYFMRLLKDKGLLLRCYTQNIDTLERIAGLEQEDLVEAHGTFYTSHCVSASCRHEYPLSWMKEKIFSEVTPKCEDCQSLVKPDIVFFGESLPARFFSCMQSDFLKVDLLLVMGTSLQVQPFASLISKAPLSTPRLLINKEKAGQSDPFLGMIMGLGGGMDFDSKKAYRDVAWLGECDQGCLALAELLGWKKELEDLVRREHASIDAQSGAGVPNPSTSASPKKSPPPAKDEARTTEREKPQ
As to the kind of experiment: Activation of human SirT2 protein fluorescence polarization assay. A general note: In fluorescence polarisation assays a small probe gives low polarisation when free and higher when bound to something large.

A short description of assay [2]: Inhibition of histone methyltransferase SU(VAR)3-9.

pEC50, pIC50: −log10 of the molar value.

Regarding `O=C(Nc1ccccc1-c1cn2c(CN3CCNCC3)csc2n1)c1cnc2ccccc2n1`, the pEC50 in assay [1] was 6.80.

`CN1C(=O)[C@@]23C[C@]4([C@]56C[C@@]78SS[C@@](CO)(C(=O)N7[C@H]5Nc5ccccc56)N(C)C8=O)c5ccccc5N[C@@H]4N2C(=O)[C@]1(CO)SS3` [CHAETOCIN] gave a pIC50 in assay [2] of 6.22.
